Laboratory results taken from patent US8835458B2 (Hanmi Science Co., Ltd, priority 2010, dated 2014).
Structures can show the parent of a compound that is named as a salt.

What was measured:
[1] = Toxicity to normal cells (SRB); format: cell-based, human; conditions: human, Hs27 fibroblasts (normal cell line)
Method: (§1) MDA-MB-231 breast cancer cell lines (ATCC #HTB-26) and BxPC-3 pancreas cancer cell lines (ATCC #CRL 1687), which have been reported to express XIAP, were obtained from ATCC (American type culture collection; Rockville, Md.). MDA-MB-231 cell lines were incubated in L-15 medium supplemented with 10% FBS and 1% penicillin/streptomycin (Gibco BRL) at a T-75 cm^2 growth flask. In addition, BxPC-3 cell lines were incubated in RPMI medium supplemented with 10% FBS and 1% penicillin/streptomycin. For experiments of toxicity to normal cells, fibroblasts Hs27 (ATCC #CRL 1634) and Balb/c3t3 (ATCC #CCL 163) were used. The various cell lines were transferred into 96-well plates at a density of 3,000˜5,000 cells/100 μL, and cultured for 24 hours under conditions of 37° C., 5% CO2, 95% air, and 100% relative humidity (MDA-MB-231 cells were cultured under atmospheric conditions). The cells were treated with 10 μM˜0.1 nM of test compounds, and MDA-MB-231, BxPC-3, and normal cell lines were cultured for 120, 96, and 72 hours, respectively.
(§2) Cell viabilities of MDA-MB-231 cell lines were measured at an absorbance of 490 nm using CellTiter 96™ AQueous One Solution Cell proliferation Assay (MTS, Promega), and cell viabilities of BxPC-3 and normal cell lines were measured by fixing cells with 10% TCA (trichloroacetic acid), staining with SRB (sulforhodamine B), and measuring at 540 nm. From the values, GI50 values in which test compounds reduce the growth of cancer cells by 50% were calculated. The growth rates of cancer cells were calculated from following Equation 1 or 2. [(Ti−Tz)/(C−Tz)]×100 (for Ti>=Tz) [Equation 1] [(Ti−Tz)/Tz]×100 (for Ti<Tz) [Equation 2] In Equations 1 and 2, Tz refers to a density of untreated cells, which is an absorbance in 0% cell growth groups. C refers to a density of cells cultured by adding only medium, and Ti refers to a density of cells treated with test compounds.
(§3) GI50 value is the concentration of a test compound when the value of Equation 1 is 50, which indicates the concentration of test compound required to inhibit the cancer cells by 50%. On each measurement, test compounds were compared with a control.
(§4) The activity value of each compound (GI50 value) was shown in Table 5, and an IAP antagonist was used as a control.
(§5) In the activity measurement on MDA-MB-231 breast cancer cell lines, the values were represented as “***” for 100 nM or less, “**” for over 100 nM to below 1,000 nM, and “*” for 1,000 nM or more. In the measurement on normal cell lines, Balb/C and Hs27, the values were represented as “+++” for 10,000 nM or more, “++” for over 5,000 nM to below 10,000 nM, and “+” for 5,000 nM or less.

[2] = test system: MDA-MB-231 breast cancer cell lines; experiment: Evaluation of inhibition on cell growth (MTS); format: cell-based; conditions: Homo sapiens, MDA-MB-231, 120 hours
Method: as §1, §2, §3, §4, §5

Row | Structure (SMILES) | GI50 [2] [nM] | GI50 at 72 h [1] [µM]
1 | CN[C@@H](C)C(=O)N[C@H](C(=O)N1CCC[C@H]1C(=O)Nc1cc2c(NCC3CCCCC3)ncnc2cc1OC)C(C)(C)C [Example 77, (S)—N-(4-(cyclohexylmethyl)amino)-7-methoxyquinazolin-6-yl)-1-((S)-3,3-dimethyl-2-((S)-2-(methylamino)propanamido)butanoyl)pyrrolidine-2-carboxamide hydrochloride] | ≤ 100 | > 10
2 | CN[C@@H](C)C(=O)N[C@H](C(=O)N1CCC[C@H]1C(=O)Nc1cc2c(Nc3cccnc3Cl)ncnc2cc1OC)C(C)(C)C [Example 78, (S)—N-(4-((2-chloropyridin-3-yl)amino)-7-methoxyquinazolin-6-yl)-1-((S)-3,3-dimethyl-2-((S)-2-(methylamino)propanamido)butanoyl)pyrrolidine-2-carboxamide hydrochloride] | ≤ 100 | > 10
3 | CN[C@@H](C)C(=O)N[C@H](C(=O)N1CCC[C@H]1C(=O)Nc1cc2c(Nc3ccc(Br)cc3Cl)ncnc2cc1OC)C(C)(C)C [Example 80, (S)—N-(4-((4-bromo-2-chlorophenyl)amino)-7-methoxyquinazolin-6-yl)-1-((S)-3,3-dimethyl-2-((S)-2-(methylamino)propanamido)butanoyl)pyrrolidine-2-carboxamide hydrochloride] | ≤ 100 | > 10
4 | CN[C@@H](C)C(=O)N[C@H](C(=O)N1CCC[C@H]1C(=O)Nc1cc2c(NCCc3ccccc3)ncnc2cc1OC)C(C)(C)C [Example 83, hydrochloride] | 100 to 1000 | > 10
5 | C#CCOc1ccc(Nc2ncnc3cc(OC)c(NC(=O)[C@@H]4CCCN4C(=O)[C@@H](NC(=O)[C@H](C)NC)C(C)(C)C)cc23)cn1 [Example 84, (S)-1-((S)-3,3-dimethyl-2-((S)-2-(methylamino)propanamido)butanoyl)-N-(7-methoxy-4-((6-(prop-2-yn-1-yloxy)pyridin-3-yl)amino)quinazolin-6-yl)pyrrolidine-2-carboxamide hydrochloride] | 100 to 1000 | > 10
6 | CN[C@@H](C)C(=O)N[C@H](C(=O)N1CCC[C@H]1C(=O)Nc1cc2c(Nc3ccc(N4CCCCC4)c(F)c3)ncnc2cc1OC)C(C)(C)C [Example 85, (S)-1-((S)-3,3-dimethyl-2-((S)-2-(methylamino)propanamido)butanoyl)-N-(4-((3-fluoro-4-(piperidin-1-yl)phenyl)amino)-7-methoxyquinazolin-6-yl)pyrrolidine-2-carboxamide hydrochloride] | ≤ 100 | > 10
7 | CN[C@@H](C)C(=O)N[C@H](C(=O)N1CCC[C@H]1C(=O)Nc1cc2c(Nc3ccc(Br)c(Cl)c3F)ncnc2cc1OC)C(C)(C)C [Example 87, (S)—N-(4-((4-bromo-3-chloro-2-fluorophenyl)amino)-7-methoxyquinazolin-6-yl)-1-((S)-3,3-dimethyl-2-((S)-2-(methylamino)propanamido)butanoyl)pyrrolidine-2-carboxamide hydrochloride] | ≤ 100 | > 10
8 | CN[C@@H](C)C(=O)N[C@H](C(=O)N1CCC[C@H]1C(=O)Nc1cc2c(NC(=O)Nc3ccccc3F)ncnc2cc1OC)C(C)(C)C [Example 89, (S)-1-((S)-3,3-dimethyl-2-((S)-2-(methylamino)propanamido)butanoyl)-N-(4-(3-(2-fluorophenyl)ureido)-7-methoxyquinazolin-6-yl)pyrrolidine-2-carboxamide hydrochloride] | ≤ 100 | > 10
9 | C#CCOc1ccc(Nc2ncnc3cc(OC)c(NC(=O)[C@@H]4CCCN4C(=O)[C@@H](NC(=O)[C@H](C)NC)C(C)(C)C)cc23)cc1 [Example 91, (S)-1-((S)-3,3-dimethyl-2-((S)-2-(methylamino)propanamide)butanoyl)-N-(7-methoxy-4-((4-(2-propyn-1-yloxy)phenyl)amino)quinazolin-6-yl)pyrrolidine-2-carboxamide hydrochloride] | ≤ 100 | > 10
10 | CN[C@@H](C)C(=O)N[C@H](C(=O)N1CCC[C@H]1C(=O)Nc1cc2c(Nc3ccc4c(=O)cc(C)oc4c3)ncnc2cc1OC)C(C)(C)C [Example 93, (S)-1-((S)-3,3-dimethyl-2-((S)-2-(methylamino)propanamide)butanoyl)-N-(7-methoxy-4-((2-methyl-4-oxo-4H-chromen-7-yl)amino)quinazolin-6-yl)pyrrolidine-2-carboxamide hydrochloride] | ≤ 100 | > 10

Further lines, with some results ahead:

Row | GI50 [2] [nM] | Structure (SMILES) | GI50 at 72 h [1] [µM]
11 | ≤ 100 | CN[C@@H](C)C(=O)N[C@H](C(=O)N1CCC[C@H]1C(=O)Nc1cc2c(Nc3ccc(Cl)nc3)ncnc2cc1OC)C(C)(C)C [Example 79, (S)—N-(4-((6-chloropyridin-3-yl)amino)-7-methoxyquinazolin-6-yl)-1-((S)-3,3-dimethyl-2-((S)-2-(methylamino)propanamido)butanoyl)pyrrolidine-2-carboxamide hydrochloride] | > 10
12 | ≤ 100 | CN[C@@H](C)C(=O)N[C@H](C(=O)N1CCC[C@H]1C(=O)Nc1cc2c(Nc3cccc(Cl)c3Cl)ncnc2cc1OC)C(C)(C)C [Example 81, (S)—N-(4-((2,3-dichlorophenyl)amino)-7-methoxyquinazolin-6-yl)-1-((S)-3,3-dimethyl-2-((S)-2-(methylamino)propanamido)butanoyl)pyrrolidine-2-carboxamide hydrochloride] | > 10
13 | ≤ 100 | CN[C@@H](C)C(=O)N[C@H](C(=O)N1CCC[C@H]1C(=O)Nc1cc2c(Nc3ccc(F)cc3Br)ncnc2cc1OC)C(C)(C)C [Example 82, (S)—N-(4-((2-bromo-4-fluorophenyl)amino)-7-methoxyquinazolin-6-yl)-1-((S)-3,3-dimethyl-2-((S)-2-(methylamino)propanamido)butanoyl)pyrrolidine-2-carboxamide hydrochloride] | > 10
14 | ≤ 100 | CN[C@@H](C)C(=O)N[C@H](C(=O)N1CCC[C@H]1C(=O)Nc1cc2c(Nc3ccc(N4CCN(C)CC4)c(Cl)c3)ncnc2cc1OC)C(C)(C)C [Example 86, (S)—N-(4-((3-chloro-4-(4-methylpiperazin-1-yl)phenyl)amino)-7-methoxyquinazolin-6-yl)-1-((S)-3,3-dimethyl-2-((S)-2-(methylamino)propanamido)butanoyl)pyrrolidine-2-carboxamide hydrochloride] | > 10
15 | ≤ 100 | CN[C@@H](C)C(=O)N[C@H](C(=O)N1CCC[C@H]1C(=O)Nc1cc2c(Nc3ccc(-n4ccnc4)cc3)ncnc2cc1OC)C(C)(C)C [Example 88, (S)—N-(4-((4-(1H-imidazol-1-yl)phenyl)amino)-7-methoxyquinazolin-6-yl)-1-((S)-3,3-dimethyl-2-((S)-2-(methylamino)propanamido)butanoyl)pyrrolidine-2-carboxamide hydrochloride] | > 10
16 | ≤ 100 | CN[C@@H](C)C(=O)N[C@H](C(=O)N1CCC[C@H]1C(=O)Nc1cc2c(Nc3ccc(N4CCOCC4)cc3)ncnc2cc1OC)C(C)(C)C [Example 90, (S)-1-((S)-3,3-dimethyl-((S)-2-(methylamino)propanamido)butanoyl)-N-(7-methoxy-4-((4-morpholinophenyl)amino)quinazolin-6-yl)pyrrolidine-2-carboxamide hydrochloride] | > 10
17 | ≤ 100 | CN[C@@H](C)C(=O)N[C@H](C(=O)N1CCC[C@H]1C(=O)Nc1cc2c(Nc3ccc(N4CCN(CC5CC5)CC4)c(Cl)c3)ncnc2cc1OC)C(C)(C)C [Example 92, (S)—N-(4-((3-chloro-4-(4-(cyclopropylmethyl)piperazin-1-yl)phenyl)amino)-7-methoxyquinazolin-6-yl)-1-((S)-3,3-dimethyl-2-((S)-2-(methylamino)propanamido)butanoyl)pyrrolidine-2-carboxamide] | > 10
18 | 100 to 1000 | CN[C@@H](C)C(=O)N[C@H](C(=O)N1CCC[C@H]1C(=O)Nc1cc2c(Nc3ccc4c(c3)CC(=O)N4)ncnc2cc1OC)C(C)(C)C [Example 94, (S)-1-((S)-3,3-dimethyl-2-((S)-2-(methylamino)propanamide)butanoyl)-N-(7-methoxy-4-((2-oxoindolin-5-yl)amino)quinazolin-6-yl)pyrrolidine-2-carboxamide hydrochloride] | > 10
